For test [1], the system named is IHH-4 (Thyroid Gland Carcinoma). Briefly: combination Emax (second highest fraction inhibited in the dose matrix, 72 h); higher = more inhibition; extreme values may be limits of the assay. In short, it runs like this: (§1)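 Bliss excess equals the observed combination effect minus the expected value EA + EB − EA·EB, where EA and EB are the effects of each agent alone. Combination Emax is the second-highest inhibition within the matrix. Inhibition was scaled from CellTiter-Glo 2.0 luminescence, with 0 set by vehicle wells and 1 by blank wells, after 72 hours of two-drug dosing of cells plated in 1536-well plates.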

The next test concerns IGR-1 (Melanoma). The test is described as above. In short, it runs like this: as §1

`CN(CCO)CC[C@H](CSc1ccccc1)Nc1ccc(S(=O)(=O)NC(=O)c2ccc(N3CCC([C@@H](O)c4ccccc4-c4ccc(Cl)cc4)CC3)cc2)cc1S(=O)(=O)C(F)(F)F` [AZD4320] + Cc1cc2ncnn2cc1Nc1ncc2c(n1)n(C1CCOCC1)c(=O)n2C [AZD7648] (first compound max 1 µM, 7x7, partner max 10 µM): the “combination Emax” value came to 0.193 in test [1] and 0.33 in the test on IGR-1 (Melanoma).
For `CN(CCO)CC[C@H](CSc1ccccc1)Nc1ccc(S(=O)(=O)NC(=O)c2ccc(N3CCC([C@@H](O)c4ccccc4-c4ccc(Cl)cc4)CC3)cc2)cc1S(=O)(=O)C(F)(F)F` [AZD4320] + CCN(CCO)CCCOc1ccc2c(Nc3cc(CC(=O)Nc4cccc(F)c4)[nH]n3)ncnc2c1 [AZD2811] (first compound max 1 µM, 7x7, partner max 1 µM), the “combination Emax” value is 0.282 in test [1] and 0.926 in the test on IGR-1 (Melanoma).
In the same order, the values of `CN(CCO)CC[C@H](CSc1ccccc1)Nc1ccc(S(=O)(=O)NC(=O)c2ccc(N3CCC([C@@H](O)c4ccccc4-c4ccc(Cl)cc4)CC3)cc2)cc1S(=O)(=O)C(F)(F)F` [AZD4320] + C[C@@H](Nc1cc(F)cc(F)c1)c1cc(C(=O)N(C)C)cc2c(=O)cc(N3CCOCC3)oc12 [AZD8186] (first compound max 1 µM, 7x7, partner max 3 µM) are 0.516 and 0.901.
In the same order, the values of `CC(=O)Nc1cccc(-n2c(=O)n(C3CC3)c(=O)c3c(Nc4ccc(I)cc4F)n(C)c(=O)c(C)c32)c1` [Trametinib] + Cc1nc(-c2cn3c(n2)-c2ccc(-c4cnn(C(C)(C)C(N)=O)c4)cc2OCC3)n(C(C)C)n1 [Taselisib] (first compound max 1 µM, 7x7, partner max 10 µM) are 0.78 and 0.759.
In the same order, the values of `CC1(C)CCC(CN2CCN(c3ccc(C(=O)NS(=O)(=O)c4ccc(NCC5CCOCC5)c([N+](=O)[O-])c4)c(Oc4cnc5[nH]ccc5c4)c3)CC2)=C(c2ccc(Cl)cc2)C1` [Venetoclax] + CN(C)CCCOc1ccc(-c2ccc3ncc4c(c3c2)n(C2CCOCC2)c(=O)n4C)cn1 [AZD0156] (first compound max 1 µM, 7x7, partner max 1 µM) are 0.129 and 0.211.
Turning to `CC1(C)CCC(CN2CCN(c3ccc(C(=O)NS(=O)(=O)c4ccc(NCC5CCOCC5)c([N+](=O)[O-])c4)c(Oc4cnc5[nH]ccc5c4)c3)CC2)=C(c2ccc(Cl)cc2)C1` [Venetoclax] + C[C@@H](Nc1cc(F)cc(F)c1)c1cc(C(=O)N(C)C)cc2c(=O)cc(N3CCOCC3)oc12 [AZD8186] (first compound max 1 µM, 7x7, partner max 3 µM), the “combination Emax” value in test [1] came out at 0.22; with IGR-1 (Melanoma), 0.0327.
In the same order, the values of `Cc1c2c(nn1C)CSCc1cc(n(C)n1)CSc1cc(c3ccccc3c1)OCCCc1c(C(=O)O)n(C)c3c-2c(Cl)ccc13` [AZD5991] + Cn1cnc2c(F)c(Nc3ccc(Br)cc3Cl)c(C(=O)NOCCO)cc21 [Selumetinib] (first compound max 1 µM, 7x7, partner max 3 µM) are 0.385 and 0.622.
In the same order, the values of `CC1(C)CCC(CN2CCN(c3ccc(C(=O)NS(=O)(=O)c4ccc(NCC5CCOCC5)c([N+](=O)[O-])c4)c(Oc4cnc5[nH]ccc5c4)c3)CC2)=C(c2ccc(Cl)cc2)C1` [Venetoclax] + Cc1cc2ncnn2cc1Nc1ncc2c(n1)n(C1CCOCC1)c(=O)n2C [AZD7648] (first compound max 1 µM, 7x7, partner max 10 µM) are 0.259 and 0.174.
In the same order, the values of `CC1(C)CCC(CN2CCN(c3ccc(C(=O)NS(=O)(=O)c4ccc(NCC5CCOCC5)c([N+](=O)[O-])c4)c(Oc4cnc5[nH]ccc5c4)c3)CC2)=C(c2ccc(Cl)cc2)C1` [Venetoclax] + Cn1cnc2c(F)c(Nc3ccc(Br)cc3Cl)c(C(=O)NOCCO)cc21 [Selumetinib] (first compound max 1 µM, 7x7, partner max 3 µM) are 0.539 and 0.301.
`Cc1c2c(nn1C)CSCc1cc(n(C)n1)CSc1cc(c3ccccc3c1)OCCCc1c(C(=O)O)n(C)c3c-2c(Cl)ccc13` [AZD5991] + CCN(CCO)CCCOc1ccc2c(Nc3cc(CC(=O)Nc4cccc(F)c4)[nH]n3)ncnc2c1 [AZD2811] (first compound max 1 µM, 7x7, partner max 1 µM): the “combination Emax” value in test [1] came out at 0.404; with IGR-1 (Melanoma), 0.338.
Consider `Cc1c2c(nn1C)CSCc1cc(n(C)n1)CSc1cc(c3ccccc3c1)OCCCc1c(C(=O)O)n(C)c3c-2c(Cl)ccc13` [AZD5991] + C1CN(CCC1(C(=O)N[C@@H](CCO)C2=CC=C(C=C2)Cl)N)C3=NC=NC4=C3C=CN4 [Capivasertib] (first compound max 1 µM, 7x7, partner max 3 µM), for which the “combination Emax” value with IGR-1 (Melanoma) worked out at 0.26.
For the compound `Cc1c2c(nn1C)CSCc1cc(n(C)n1)CSc1cc(c3ccccc3c1)OCCCc1c(C(=O)O)n(C)c3c-2c(Cl)ccc13` [AZD5991] + C[C@@H]1COCCN1C2=NC(=NC(=C2)C3(CC3)[S@](=N)(=O)C)C4=C5C=CNC5=NC=C4 [AZD6738] (first compound max 1 µM, 7x7, partner max 10 µM), the “combination Emax” value was 0.709 in test [1] and 0.852 in the test on IGR-1 (Melanoma).
In the same order, the values of `Cc1c2c(nn1C)CSCc1cc(n(C)n1)CSc1cc(c3ccccc3c1)OCCCc1c(C(=O)O)n(C)c3c-2c(Cl)ccc13` [AZD5991] + CN(C)CCCOc1ccc(-c2ccc3ncc4c(c3c2)n(C2CCOCC2)c(=O)n4C)cn1 [AZD0156] (first compound max 1 µM, 7x7, partner max 1 µM) are 0.265 and 0.327.
For `COc1nnc2ccc(N3CCC(c4ccc(OCCN5CCN(C)C(=O)[C@H]5C)cc4)CC3)nn12` [AZD5153] + CN(CC[C@H](CSC1=CC=CC=C1)NC2=C(C=C(C=C2)S(=O)(=O)NC(=O)C3=CC=C(C=C3)N4CCC(CC4)[C@H](C5=CC=CC=C5C6=CC=C(C=C6)Cl)O)S(=O)(=O)C(F)(F)F)CCO [AZD4320] (first compound max 1 µM, 7x7, partner max 1 µM), the “combination Emax” value in the test on IGR-1 (Melanoma) worked out at 0.909.
Same read-out and setting: the result for `C[C@@H](c1ccc2nccn2c1)n1nnc2ncc(-c3cnn(C)c3)nc21` [Savolitinib] + CN(CC[C@H](CSC1=CC=CC=C1)NC2=C(C=C(C=C2)S(=O)(=O)NC(=O)C3=CC=C(C=C3)N4CCC(CC4)[C@H](C5=CC=CC=C5C6=CC=C(C=C6)Cl)O)S(=O)(=O)C(F)(F)F)CCO [AZD4320] (first compound max 1 µM, 7x7, partner max 1 µM) reads 0.409.
`CN(CCO)CC[C@H](CSc1ccccc1)Nc1ccc(S(=O)(=O)NC(=O)c2ccc(N3CCC([C@@H](O)c4ccccc4-c4ccc(Cl)cc4)CC3)cc2)cc1S(=O)(=O)C(F)(F)F` [AZD4320] + Cn1cnc2c(F)c(Nc3ccc(Br)cc3Cl)c(C(=O)NOCCO)cc21 [Selumetinib] (first compound max 1 µM, 7x7, partner max 3 µM): the “combination Emax” value in test [1] was 0.58; with IGR-1 (Melanoma), 0.986.
In the same order, the values of `CC1(C)CCC(CN2CCN(c3ccc(C(=O)NS(=O)(=O)c4ccc(NCC5CCOCC5)c([N+](=O)[O-])c4)c(Oc4cnc5[nH]ccc5c4)c3)CC2)=C(c2ccc(Cl)cc2)C1` [Venetoclax] + C=CCn1c(=O)c2cnc(Nc3ccc(N4CCN(C)CC4)cc3)nc2n1-c1cccc(C(C)(C)O)n1 [AZD1775] (first compound max 1 µM, partner max 1 µM) are 0.711 and 0.396.
Consider `CC(=O)c1c(C)c2cnc(Nc3ccc(N4CCNCC4)cn3)nc2n(C2CCCC2)c1=O` [Palbociclib] + CN(CC[C@H](CSC1=CC=CC=C1)NC2=C(C=C(C=C2)S(=O)(=O)NC(=O)C3=CC=C(C=C3)N4CCC(CC4)[C@H](C5=CC=CC=C5C6=CC=C(C=C6)Cl)O)S(=O)(=O)C(F)(F)F)CCO [AZD4320] (first compound max 10 µM, 7x7, partner max 1 µM), for which the “combination Emax” value in the test with IGR-1 (Melanoma) worked out at 0.976.
Take `CC1(C)CCC(CN2CCN(c3ccc(C(=O)NS(=O)(=O)c4ccc(NCC5CCOCC5)c([N+](=O)[O-])c4)c(Oc4cnc5[nH]ccc5c4)c3)CC2)=C(c2ccc(Cl)cc2)C1` [Venetoclax] + COc1cc(Nc2ncc3c(n2)-c2ccc(Cl)cc2C(c2c(F)cccc2OC)=NC3)ccc1C(=O)O [Alisertib] (first compound max 1 µM, 7x7, partner max 10 µM): the “combination Emax” value in test [1] stood at 0.411; in the test on IGR-1 (Melanoma), 0.403.
Take `Cc1c2c(nn1C)CSCc1cc(n(C)n1)CSc1cc(c3ccccc3c1)OCCCc1c(C(=O)O)n(C)c3c-2c(Cl)ccc13` [AZD5991] + CC1(C)CCC(CN2CCN(c3ccc(C(=O)NS(=O)(=O)c4ccc(NCC5CCOCC5)c([N+](=O)[O-])c4)c(Oc4cnc5[nH]ccc5c4)c3)CC2)=C(c2ccc(Cl)cc2)C1 [Venetoclax] (first compound max 1 µM, 7x7, partner max 1 µM): the “combination Emax” value in test [1] came out at 0.253; in the test on IGR-1 (Melanoma) it was 0.969.
In the same order, the values of `Cc1c2c(nn1C)CSCc1cc(n(C)n1)CSc1cc(c3ccccc3c1)OCCCc1c(C(=O)O)n(C)c3c-2c(Cl)ccc13` [AZD5991] + C[C@@H](Nc1cc(F)cc(F)c1)c1cc(C(=O)N(C)C)cc2c(=O)cc(N3CCOCC3)oc12 [AZD8186] (first compound max 1 µM, 7x7, partner max 3 µM) are 0.234 and 0.28.
In the same order, the values of `Cc1c2c(nn1C)CSCc1cc(n(C)n1)CSc1cc(c3ccccc3c1)OCCCc1c(C(=O)O)n(C)c3c-2c(Cl)ccc13` [AZD5991] + C=CCn1c(=O)c2cnc(Nc3ccc(N4CCN(C)CC4)cc3)nc2n1-c1cccc(C(C)(C)O)n1 [AZD1775] (first compound max 1 µM, partner max 1 µM) are 0.684 and 0.63.
Turning to `CC1(C)CCC(CN2CCN(c3ccc(C(=O)NS(=O)(=O)c4ccc(NCC5CCOCC5)c([N+](=O)[O-])c4)c(Oc4cnc5[nH]ccc5c4)c3)CC2)=C(c2ccc(Cl)cc2)C1` [Venetoclax] + C[C@@H]1COCCN1C2=NC(=NC(=C2)C3(CC3)[S@](=N)(=O)C)C4=C5C=CNC5=NC=C4 [AZD6738] (first compound max 1 µM, 7x7, partner max 10 µM), the “combination Emax” value in test [1] was found to be 0.691; with IGR-1 (Melanoma) it was 0.675.

For the origin of these results see the supplement of paper PMC11061612.
